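Growth conditions: 96-well plates. Treatment: test compound, 48 hours, 5 concentrations. Analysis: linear interpolation between bracketing concentrations; unreached endpoints set to highest concentration. GI50 = concentration required for 50% inhibition of growth.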 Calls of active or inactive are those of the source. No stated cut-off is given here; in the data, active = GI50 up to about 1.1 µM and inactive = higher.
Columns and labels:
Assay in all cases: growth of human tumour cells (NCI), 48 h
[1] = test system: A549
[2] = test system: CAKI-1
[3] = test system: EKVX
[4] = test system: HCC 2998
[5] = test system: HCT-15
[6] = test system: HOP-92
[7] = test system: HT-29
[8] = test system: NCI-H226
[9] = test system: NCI-H23
[10] = test system: NCI-H522
[11] = test system: OVCAR-3
[12] = test system: OVCAR-4
[13] = test system: OVCAR-5
[14] = test system: RXF 393
[15] = test system: SF-295
[16] = test system: SK-OV-3
[17] = test system: SW-620
[18] = test system: TK-10
[19] = test system: UACC-62
[20] = test system: SF-539

SMILES | GI50 [1] | GI50 [2] | GI50 [3] | GI50 [4] | GI50 [5] [µM] | GI50 [6] | GI50 [7] | GI50 [8] | GI50 [9] | GI50 [10] | GI50 [11] | GI50 [12] | GI50 [13] | GI50 [14] | GI50 [15] | GI50 [16] | GI50 [17] | GI50 [18] | GI50 [19] | GI50 [20]
Nc1ccc(S(=O)(=O)c2ccc(NC(=O)c3cccnc3)cc2)cc1 | > 100 µM (inactive) | > 100 µM (inactive) | 64.9 µM (inactive) | > 100 µM (inactive) | > 100 | > 100 µM (inactive) | > 100 µM (inactive) | > 100 µM (inactive) | > 100 µM (inactive) | 53.2 µM (inactive) | > 100 µM (inactive) | 62.4 µM (inactive) | > 100 µM (inactive) | 56.4 µM (inactive) | > 100 µM (inactive) | > 100 µM (inactive) | > 100 µM (inactive) | > 100 µM (inactive) | > 100 µM (inactive) | 
O=C(Nc1ccc(C(F)(F)F)cc1[N+](=O)[O-])C(=O)Nn1c(S)nc2ccccc2c1=O | > 100 µM (inactive) | > 100 µM (inactive) | 33.3 µM (inactive) | > 100 µM (inactive) | > 100 | > 100 µM (inactive) | > 100 µM (inactive) | > 100 µM (inactive) | > 100 µM (inactive) | > 100 µM (inactive) |  | > 100 µM (inactive) | > 100 µM (inactive) | > 100 µM (inactive) | > 100 µM (inactive) | > 100 µM (inactive) | > 100 µM (inactive) | > 100 µM (inactive) | > 100 µM (inactive) | > 100 µM (inactive)
COc1ccc(-c2c(C#N)c(-c3ccc(C)cc3)n(NS(=O)(=O)c3ccc(C)cc3)c(=O)c2C#N)cc1 | 41 µM (inactive) | 63.7 µM (inactive) | 53.5 µM (inactive) | 62.1 µM (inactive) | 60.3 | 74.6 µM (inactive) | 44.1 µM (inactive) | > 100 µM (inactive) |  | 80.7 µM (inactive) |  | 31.3 µM (inactive) | > 100 µM (inactive) | 38.8 µM (inactive) | 37.8 µM (inactive) | 70.5 µM (inactive) | 49.5 µM (inactive) | 87.3 µM (inactive) | 43.6 µM (inactive) | 32.4 µM (inactive)
O=C1CCCN1C(=O)CS(=O)(=O)c1ccccc1 | > 100 µM (inactive) | > 100 µM (inactive) |  | > 100 µM (inactive) | > 100 | > 100 µM (inactive) | > 100 µM (inactive) | > 100 µM (inactive) | > 100 µM (inactive) | > 100 µM (inactive) | > 100 µM (inactive) | > 100 µM (inactive) | > 100 µM (inactive) | > 100 µM (inactive) | > 100 µM (inactive) | > 100 µM (inactive) | > 100 µM (inactive) | > 100 µM (inactive) | > 100 µM (inactive) | 
CC(=O)OCC1OC(O[C@@H]2C[C@H]3C(C)(C)[C@@H](OC(C)=O)CC[C@]3(C)[C@H]3CC[C@]45C[C@]4(CC[C@H]5[C@@H](C)C[C@@H](O)[C@H](O)C(C)(C)F)[C@@]32C)C(O)C(O)C1O (stereo partly specified) | 1.62 µM (inactive) | 63.4 µM (inactive) | 1.61 µM (inactive) | 25.9 µM (inactive) | 2.48 | 1.93 µM (inactive) | 1.64 µM (inactive) |  | 2.22 µM (inactive) | 1.68 µM (inactive) | 30.1 µM (inactive) | 65.9 µM (inactive) | 1.47 µM (inactive) | 57.5 µM (inactive) | 24.7 µM (inactive) | 42.2 µM (inactive) | 1.85 µM (inactive) | 57.9 µM (inactive) | 23.9 µM (inactive) | 1.81 µM (inactive)
O=C1C(c2ccccc2)=[N+]([O-])c2cc([N+](=O)[O-])ccc21 | 32 µM (inactive) |  | 17.4 µM (inactive) | 27.5 µM (inactive) | 21.4 | 30.5 µM (inactive) | 21.9 µM (inactive) | 73.3 µM (inactive) | 43.6 µM (inactive) | 15.3 µM (inactive) | 18.2 µM (inactive) |  | 69.8 µM (inactive) | 15.9 µM (inactive) | 48.2 µM (inactive) | > 100 µM (inactive) | 60.3 µM (inactive) | 20.1 µM (inactive) | 13.1 µM (inactive) | 25.5 µM (inactive)
Nc1nc(SCCC/C=C/B(O)O)nc2c1ncn2C1OC(CO)C(O)C1O (stereo unspecified) | > 243 µM (inactive) |  | > 243 µM (inactive) | > 243 µM (inactive) | > 243 | > 243 µM (inactive) | > 243 µM (inactive) | > 243 µM (inactive) | > 243 µM (inactive) | > 243 µM (inactive) | > 243 µM (inactive) | > 243 µM (inactive) | > 243 µM (inactive) | > 243 µM (inactive) | > 243 µM (inactive) | > 243 µM (inactive) | > 243 µM (inactive) | > 243 µM (inactive) | > 243 µM (inactive) | > 243 µM (inactive)
NC1=NS(=O)(=O)Nc2nc(-c3ccc([N+](=O)[O-])o3)[nH]c21 | > 100 µM (inactive) | 21.3 µM (inactive) |  | 16.8 µM (inactive) | 19.9 | 14 µM (inactive) | 19.4 µM (inactive) |  | 19.6 µM (inactive) | 17.4 µM (inactive) | 24.7 µM (inactive) | 17.1 µM (inactive) | 19.4 µM (inactive) | 12.9 µM (inactive) | 16.3 µM (inactive) | > 10 µM (inactive) | 13.8 µM (inactive) | 19 µM (inactive) | 15.9 µM (inactive) | 17.3 µM (inactive)
COC(=O)C(C#N)C1NC(=O)c2ccccc21 (stereo unspecified) | > 100 µM (inactive) |  | > 100 µM (inactive) | > 100 µM (inactive) | > 100 | > 100 µM (inactive) | > 100 µM (inactive) | > 100 µM (inactive) | > 100 µM (inactive) | > 100 µM (inactive) | > 100 µM (inactive) | > 100 µM (inactive) | > 100 µM (inactive) | > 100 µM (inactive) | > 100 µM (inactive) | > 100 µM (inactive) | > 100 µM (inactive) | > 100 µM (inactive) | > 100 µM (inactive) | > 100 µM (inactive)
C=C(C)CCC1CC=[N+]([O-])OC1C(C)(C)C (stereo unspecified) | 20.9 µM (inactive) | 26.2 µM (inactive) | 68.2 µM (inactive) | > 100 µM (inactive) | 26.1 | > 100 µM (inactive) | 44.5 µM (inactive) | 15.5 µM (inactive) |  | 24.2 µM (inactive) | 66.1 µM (inactive) |  | > 100 µM (inactive) | 18.2 µM (inactive) | > 100 µM (inactive) | > 100 µM (inactive) | 44.5 µM (inactive) | > 100 µM (inactive) | 36.3 µM (inactive) | 72.6 µM (inactive)
Cn1cnc(N2CCCC2)c(C#N)c1=S | > 100 µM (inactive) | 35.9 µM (inactive) | 94.4 µM (inactive) | > 100 µM (inactive) | > 100 | 76.2 µM (inactive) | > 100 µM (inactive) | > 100 µM (inactive) | > 100 µM (inactive) | > 100 µM (inactive) | > 100 µM (inactive) | > 100 µM (inactive) | > 100 µM (inactive) | > 100 µM (inactive) | > 100 µM (inactive) |  | > 100 µM (inactive) | > 100 µM (inactive) | > 100 µM (inactive) | > 100 µM (inactive)
O=C1OC(=O)C2C3C=CC(C12)C1C2C=CC2C31 (stereo unspecified) | > 100 µM (inactive) | > 100 µM (inactive) | > 100 µM (inactive) | > 100 µM (inactive) |  | > 100 µM (inactive) | > 100 µM (inactive) | > 100 µM (inactive) | > 100 µM (inactive) | > 100 µM (inactive) |  | > 100 µM (inactive) | > 100 µM (inactive) | > 100 µM (inactive) | > 100 µM (inactive) | > 100 µM (inactive) | > 100 µM (inactive) | > 100 µM (inactive) |  | > 100 µM (inactive)
NCCCn1c2ccccc2c2c3c(c4c(c21)CCC(O)CC4)C(=O)NC3=O (stereo unspecified) | 4.86 µM (inactive) | 3.66 µM (inactive) | 9.18 µM (inactive) | 0.845 µM (active) | 11 | 2.71 µM (inactive) | 0.729 µM (active) | 2.74 µM (inactive) | 2.45 µM (inactive) | 2.44 µM (inactive) | 2.55 µM (inactive) | 1.85 µM (inactive) | 2.24 µM (inactive) | 2.15 µM (inactive) | 3.22 µM (inactive) |  | 1.04 µM (active) | 3.57 µM (inactive) | 4.12 µM (inactive) | 6.61 µM (inactive)
C=C1C(OC(C)=O)CC(OC(C)=O)C2(C)C(OC(C)=O)C(OC(C)=O)C3=C(C)C(OC(=O)/C=C/c4ccccc4)CC(C(OC(C)=O)C12)C3(C)C (stereo unspecified) | > 100 µM (inactive) | 33.1 µM (inactive) |  | > 100 µM (inactive) | > 100 | 21.8 µM (inactive) | > 100 µM (inactive) | 67.3 µM (inactive) |  | 68.1 µM (inactive) |  | 16.7 µM (inactive) | > 100 µM (inactive) | 36.4 µM (inactive) | 23.9 µM (inactive) | 30.5 µM (inactive) | > 100 µM (inactive) | > 100 µM (inactive) | > 100 µM (inactive) | 25.5 µM (inactive)
CN(C)Cc1cc(/C(=C(\C#N)c2ccccc2)c2ccc(O)cc2)ccc1O | 24.6 µM (inactive) | 20.9 µM (inactive) | 23.9 µM (inactive) | 15.5 µM (inactive) | 25.4 | 14.4 µM (inactive) | 15.4 µM (inactive) | 21.9 µM (inactive) | 19.1 µM (inactive) | 12.9 µM (inactive) | 18.7 µM (inactive) | 21.5 µM (inactive) | 26.2 µM (inactive) | 3.96 µM (inactive) | 18.4 µM (inactive) | 27 µM (inactive) | 21 µM (inactive) | 23 µM (inactive) | 17.8 µM (inactive) | 

Reference: ChEMBL document CHEMBL1201862, “PubChem BioAssay data set” (2004)
